Laboratory results reported in patent US10413581B2, “Combination, composition, and method of administering the combination or composition to animals” (Phibro Animal Health Corporation, priority 2014, dated 2019).

Experiments:
E. acervulina [1] = assay: Example 8: lesion score and OPG, E. acervulina; assay type: in vivo, Cobb 500 male chicks; details: Composition 250 ppm, Salinomycin 66 ppm, alone or combined
Description: (§1) On Days 18, 28, and 35, three birds per pen were sacrificed and coccidial lesion scored for degree of E. acervulina, E. maxima and E. tenella infection (Examples 6 and 7). The system of Johnson and Reid (1970) wherein 0 is normal and 1, 2, 3, or 4 indicate increasing severity of infection were used for lesion scoring. In Example 8, three birds per pen were sacrificed on days […] and coccidial lesion scored for degree of E. acervulina, E. maxima and E. tenella infection. The system of Johnson and Reid (1970) wherein 0 is normal and 1, 2, 3, or 4 indicate increasing severity of infection were used for lesion scoring.
(§2) On Days 18 and 28 fresh fecal samples were collected from each pen (Examples 6 and 7). On Days 18 and 28, fresh fecal samples were collected from each pen (Example 8). These representative samples were tested to determine the degree of oocysts shedding/cycling. Oocysts per gram were determined for each sample.
(§3) In this example, the ability of exemplary compositions to improve bird performance under challenge conditions was determined. In some embodiments, an exemplary composition was administered alone and in other embodiments, it was administered in combination with Salinomycin. In some embodiments, the birds were not fed any additives (that is, neither the composition nor Salinomycin) and in other embodiments the birds were solely fed Salinomycin. The birds used in this example were exposed to ionophore tolerant coccidia in the litter of all pens, beginning from day of age. […] The results from this example further illustrate that the disclosed compositions and combinations are effective to better control coccidia that are partially resistant to ionophores.

E. tenella [2] = assay: Example 5: birds infected with E. tenella field isolate; performance, lesion score, OPG; assay type: in vivo
Description: In another test embodiment, the effects of lower amounts of NFP (e.g., 100 ppm, 125 ppm, and 150 ppm) on birds infected with E. tenella, a species of Eimeria that causes hemorrhagic cecal coccidiosis in poultry, particularly young poultry. Infected birds were infected with 100,000 oocysts of field isolate of E. tenella. The infected birds were subjected to the treatments described below in entries 2-6 of Table 4.

[3] = system: ionophore tolerant coccidia; assay: Example 8 floor pen study, ionophore tolerant coccidia in the litter: performance, mortality, total lesion score, total OPG; assay type: in vivo, Cobb 500 male chicks
Description: In the embodiments described below in Examples 6-8, the following conditions and methods were utilized. The test house was divided into pens of equal size, arranged along a central aisle. Subtracting out for equipment, the initial bird density was ˜0.84 square ft/bird. Each pen had 5 feet high side walls with bottom 1½ feet being of solid wood to prevent bird migration. All flooring of each pen had approximately 4 inches of built-up litter.
The temperature of the building was monitored. Environmental conditions during the trial (temperature) were appropriate (optimum) to the age of the animals Illumination was provided by fluorescent bulbs placed above the pens. The lighting scheme was 24 hours of light per day.
The diets were provided ad libitum in one tube-type feeder per pen. From day 1 until day 7, feed will also be supplied on a tray placed directly on the litter of each pen.
Standard floor pen management practices were used throughout the experiment. Animals and housing facilities were inspected twice daily, observing and recording the general health status, constant feed and water supply as well as temperature, removing all dead birds, and recognizing unexpected events.
All feeds were fed as crumbles/pellets. Quantities of all basal feed and test articles used to prepare treatment batches were documented. Each batch of feed was mixed and bagged separately. Each bag was identified with the study number, date of mix, type of feed, and the correct treatment number. Complete records of feed mixing, and test article inventories were maintained. A sample from the beginning, middle, and end of each treatment feed were mixed to form a composite sample. This sample of each treatment was retained until study end. All feed was weighed by pen. Starter feed was fed from Day 0 to 18. On Day 18, non-consumed starter was weighed and discarded. Grower feed was issued and fed until Day 28. On Day 28, non-consumed grower was weighed and discarded. Finisher feed was issued and fed until Day 42. On Day 42, non-consumed finisher was weighed and discarded.
Day of hatch male chicks were obtained from Cobb-Vantress hatchery, Cleveland, Ga. The strain was Cobb 500. Breeder flock was recorded. 1760 chicks were allocated to the study. At the hatchery, the birds received routine vaccinations. The birds were sexed at the hatchery. In Example 7, all chicks were spray vaccinated with conventional doses of Coccivac-B. Only healthy appearing chicks were used in the study. In examples 6 and 7, fifty-five males were allocated to each treatment pen by blocks. In example 8, fifty-two males were allocated to each treatment pen by blocks. No birds were replaced during the course of the study. Number and disposition of all birds not used for allocation were documented. Bird weights (kg) by pen were recorded at study initiation, Day 18, 28, and termination (Day 42).
as §1
On Days 18 and 28 fresh fecal samples were collected from each pen (Examples 6 and 7). […] These representative samples were tested to determine the degree of oocysts shedding/cycling. Oocysts per gram were determined for each sample.
In this example, the ability of exemplary compositions to improve bird performance under challenge conditions was determined. […]

E. acervulina [4] = assay: Example 5: birds infected with E. acervulina field isolate; performance, lesion score, OPG; assay type: in vivo
Experimental: In this particular embodiment, the effects of the composition and Salinomycin, independently, were evaluated. Lower amounts of the composition were tested, including the amount that is typically used by those in the art (i.e., 125 ppm). Salinomycin treatments used 44 ppm or 66 ppm Salinomycin. Non-infected birds that received no medication were used as a control (entry 1 of Table 2, below). Also, some birds were administered 66 ppm of Salinomycin, but where not infected (entry 7 of Table 2, below). The remaining birds were infected with 200,000 oocysts of field isolate of E. acervulina, which is a species of Eimeria that causes coccidiosis in poultry, particularly […] poultry, and subjected to the treatments described below in entries 2-6 of Table 2.

E. maxima [5] = assay: Example 8: lesion score and OPG, E. maxima; assay type: in vivo, Cobb 500 male chicks; details: Composition 250 ppm, Salinomycin 66 ppm, alone or combined
Description: as §1, §2, §3

E. maxima [6] = assay: Example 5: birds infected with E. maxima field isolate; performance, lesion score, OPG; assay type: in vivo
Description: Similar protocols were used to determine the effects of lower amounts of NFP (e.g., 100 ppm, 125 ppm, and 150 ppm) on birds infected with E. maxima, a common form of Eimeria found in commercial broilers. Infected birds were infected with 37,500 oocysts of field isolate of E. maxima. The infected birds were subjected to the treatments described below in entries 2-6 of Table 3.

E. tenella [7] = assay: Example 8: lesion score and OPG, E. tenella; assay type: in vivo, Cobb 500 male chicks; details: Composition 250 ppm, Salinomycin 66 ppm, alone or combined
Description: as §1, §2, §3

coccidia = assay: Example 4: compatibility of the composition with Salinomycin; feed conversion, weight gain, oocysts, coccidial challenge; assay type: in vivo, broilers; details: between days 21 and 28; composition 250 ppm, Salinomycin 66 ppm
Experimental: In this particular embodiment, the compatibility of the Yucca schidigera and Quillaja saponaria composition with Salinomycin was evaluated. The treatments included embodiments where no feed additive was provided (e.g., none of the composition added), where 250 ppm of the composition was provided, where 66 ppm of Salinomycin was provided, and embodiments where 250 ppm of the composition and 66 ppm of Salinomycin were provided in combination. The anticoccidial effects and immune potentiation of each test embodiment were evaluated and the results are provided graphically in FIGS. 20-26.
A challenge study was also conducted to evaluate the potential for immune potentiation. Similar to the challenge study described in Example 3, 5 birds were removed from each pen after 21 days. These birds were challenged with a three-species coccidial challenge and then placed in batter cages for seven days. On day 28, the birds were killed and lesion scored.

[8] = system: coccidial contaminated litter; assay: Example 2: live performance of male broiler chickens, coccidial contaminated litter added to pens; assay type: in vivo; details: 22 ppm Virginiamycin, throughout the test
Experimental: In this example, the live performance of male broiler chickens during a standard diet program with and without an embodiment of the disclosed combination was determined. In this embodiment, the combination comprised Virginiamycin and different levels of the composition, particularly 0 ppm, 150 ppm, 200 ppm, and 250 ppm, and further comprising Avatec 90. A disease challenge was presented in each pen by adding coccidial contaminated litter to the pen.

[9] = 44 ppm, birds infected with 100,000 oocysts of E. tenella
[10] = 66 ppm, entry 7 of Table 4 (entries 2-6 infected)
[11] = Day 18, Composition 250 ppm, Salinomycin 66 ppm, alone or combined
[12] = Day 28, Composition 250 ppm, Salinomycin 66 ppm, alone or combined
[13] = Day 42, Composition 250 ppm, Salinomycin 66 ppm, alone or combined
[14] = 44 ppm, birds infected with 200,000 oocysts of E. acervulina
[15] = 66 ppm, entry 7 of Table 2 (not infected)
[16] = 44 ppm, birds infected with 37,500 oocysts of E. maxima
[17] = 66 ppm, entry 7 of Table 3 (entries 2-6 infected)

CC[C@@H](C(=O)[C@@H](C)[C@@H](O)[C@H](C)[C@@H]1O[C@@H]([C@@H](CC)C(=O)O)CC[C@@H]1C)[C@H]1O[C@]2(C=C[C@@H](O)[C@]3(CC[C@@](C)([C@H]4CC[C@](O)(CC)[C@H](C)O4)O3)O2)[C@H](C)C[C@@H]1C [Salinomycin]
Lesion Scores E.A. (E. acervulina [1]; Day 18): 1.3a
OPG E.A. (E. acervulina [1]; Day 21): 2915bc oocysts per gram
Lesion Scores E.A. (E. acervulina [1]; Day 28): 1.2ab
OPG E.A. (E. acervulina [1]; Day 28): 3819b oocysts per gram
Adj. Fd. Conv. (E. tenella [2]; [9]): 1.929 ab
Avg. Wt. Gain (E. tenella [2]; [9]): 0.242 ab
Feed Consum. (E. tenella [2]; [9]): 2.787 a
Lesion Score (E. tenella [2]; [9]): 0.8 c
OPG (E. tenella [2]; [9]): 800 oocysts per gram of fecal material
Adj. Fd. Conv. (E. tenella [2]; [10]): 1.863 bc
Avg. Wt. Gain (E. tenella [2]; [10]): 0.245 ab
Feed Consum. (E. tenella [2]; [10]): 2.671 a
Lesion Score (E. tenella [2]; [10]): 0.6 c
OPG (E. tenella [2]; [10]): 150 oocysts per gram of fecal material
Adj. FCR [3, 11]: 1.420ab
Feed Intake [3, 11]: 24.76a
Lesion Scores Total [3, 11]: 0.8b
Wt. Gain [3, 11]: 0.294a kg
OPG Total ([3]; Day 21, Composition 250 ppm, Salinomycin 66 ppm, alone or combined): 10352b oocysts per gram
Adj. FCR [3, 12]: 1.619b
Feed Intake [3, 12]: 74.09a
Lesion Scores Total [3, 12]: 0.6b
OPG Total [3, 12]: 7839b oocysts per gram
Wt. Gain [3, 12]: 0.875a kg
Adj. FCR [3, 13]: 1.773bc
Feed Intake [3, 13]: 175.68a
Mortality [3, 13]: 6.5a
Wt. Gain [3, 13]: 2.114a kg
performance ([3]; day 18, Salinomycin alone): did not improve performance
Adj. Fd. Conv. (E. acervulina [4]; [14]): 1.946 b
Avg. Wt. Gain (E. acervulina [4]; [14]): 0.241 ab
Feed Consum. (E. acervulina [4]; [14]): 2.804 a
Lesion Score (E. acervulina [4]; [14]): 1.3 c
OPG (E. acervulina [4]; [14]): 2734 oocysts per gram of fecal material
Adj. Fd. Conv. (E. acervulina [4]; [15]): 1.948 b
Avg. Wt. Gain (E. acervulina [4]; [15]): 0.231 b
Feed Consum. (E. acervulina [4]; [15]): 2.692 ab
Lesion Score (E. acervulina [4]; [15]): 1.4 c
OPG (E. acervulina [4]; [15]): 217 oocysts per gram of fecal material
Lesion Scores E.M. (E. maxima [5]; Day 18): 0.7a
OPG E.M. (E. maxima [5]; Day 21): 1910bc oocysts per gram
Lesion Scores E.M. (E. maxima [5]; Day 28): 0.5b
OPG E.M. (E. maxima [5]; Day 28): 955b oocysts per gram
Adj. Fd. Conv. (E. maxima [6]; [16]): 2.021 b
Avg. Wt. Gain (E. maxima [6]; [16]): 0.225 b
Feed Consum. (E. maxima [6]; [16]): 2.718 ab
Lesion Score (E. maxima [6]; [16]): 1.3 cd
OPG (E. maxima [6]; [16]): 4435 oocysts per gram of fecal material
Adj. Fd. Conv. (E. maxima [6]; [17]): 1.960 b
Avg. Wt. Gain (E. maxima [6]; [17]): 0.230 b
Feed Consum. (E. maxima [6]; [17]): 2.647 bc
Lesion Score (E. maxima [6]; [17]): 1.2 days
OPG (E. maxima [6]; [17]): 167 oocysts per gram of fecal material
Lesion Scores E.T. (E. tenella [7]; Day 18): 0.5b
OPG E.T. (E. tenella [7]; Day 21): 5528a oocysts per gram
Lesion Scores E.T. (E. tenella [7]; Day 28): 0.1b
OPG E.T. (E. tenella [7]; Day 28): 3065ab oocysts per gram
susceptibility of broilers to coccidial challenge (coccidia): increased the susceptibility

Virginiamycin
feed conversion rates [8]: improved feed conversion rates
